According to patent publication US20210261621A1, “Preparation of Dilipid Polymixins and Use Thereof as Antimicrobial Adjuvants” (priority 2018, published 2021):
Converted amounts (≈) assume the structure as drawn. Where two headings read alike, the source gives them in different places. Positions of bridges follow the written chain, without caps; N, C: chain ends. Non-standard residues stand in square brackets, D forms with d. Residues, ends and D or L forms follow the SMILES beside them. Dab = NCC[C@H](N)C(=O)O

Legend:
P. aeruginosa PAO1 [1] = assay type: cell-based, Pseudomonas aeruginosa; conditions: P. aeruginosa PAO1 (wild type)
Description: (§1) Bacterial strains were either obtained from the American Type Culture Collection (ATCC), Canadian National Intensive Care Unit (CAN-ICU) surveillance study or the Canadian Ward Surveillance (CANWARD) study. Strains from both CAN-ICU and CANWARD are isolates recovered from patients diagnosed with a presumed infectious disease that were admitted in a participating medical center across Canada. Efflux-deficient strain PAO200 (lacking MexAB-OprM efflux system) and PA0750 (lacking MexAB-OprM, MexCD-OprJ, MexEF-OprN, MexJK and MexXY efflux systems, and the outer membrane protein OpmH) were kindly gifted by Dr. Ayush Kumar (University of Manitoba).
(§2) The in vitro antibacterial activity of the compounds studied were assessed by broth microdilution susceptibility testing following CLSI guidelines. Bacterial cultures were grown overnight prior to the assay. The overnight grown cultures were diluted in saline to 0.5 McFarland turbidity, followed by 1:50 dilution in Mueller-Hinton broth (MHB) for inoculation to a final concentration of approximately 5×10^5 colony forming units/mL. Testing was performed on 96-well plates where the tested compounds were 2-fold serially diluted in MHB and incubated with equal volumes of bacterial inoculum at 37° C. for 18 h. […] Wells containing MHB with or without bacterial cells were used as positive or negative control, respectively.

pig erythrocytes = conditions: red cells of pig, 1 h, 512
Protocol: The ability of the compounds to lyse eukaryotic red blood cells was measured by the amount of hemoglobin released upon incubation with pig erythrocytes, following a published protocol [30]. Briefly, fresh pig blood (generously provided by Dr. Richard Hodges, Director of Animal Care and Veterinary Services of the University of Manitoba) drawn from a pig's antecubital vein was centrifuged at 1000 g for 5 min at 4° C., washed with phosphate-buffered saline (PBS) three times, and re-suspended in the same buffer, consecutively. Compounds at study were 2-fold serially diluted in PBS on a 96-well plate and mixed with equal volumes of erythrocyte solution. Post 1 h incubation at 37° C., the intact cells were pelleted by centrifugation at 1000 g for 5 min at 4° C. Resulting supernatant was then transferred to a new 96-well plate. The hemoglobin released was then measured via an EMax Plus microplate reader (Molecular Devices, USA) at 570 nm wavelength. Erythrocytes in PBS with or without 0.1% Triton X-100 were used as positive or negative control, respectively.

P. aeruginosa PAO1 [2] = system: P. aeruginosa PAO1; set-up: MICDrug / MICDrug in combo / MIC of adjuvant in combo: unit not given beside the values
Protocol: The potential of the dilipid polymyxins to serve as an adjuvant in combination with other antibiotics was evaluated against P. aeruginosa PAO1 strain (Tables 4 and 7-12). […] Checkerboard assays were performed with the dilipid polymyxins in combination with twenty-one clinically-used antibiotics. The panel included representatives from the β-lactam, carbapenem, tetracycline, aminoglycoside and fluoroquinolone antibiotic families. Other agents that are used to treat Gram-negative bacterial infection such as fosfomycin, trimethoprim and chloramphenicol were also included. […] Fractional inhibitory concentration (FIC) index was calculated for each combination to measure potential synergism between the two agents. FIC was obtained by dividing the MIC of antibiotic/adjuvant in combination by the MIC of antibiotic/adjuvant alone, while FIC index was calculated by the summation of FIC indices for the antibiotic and adjuvant. An FIC index of ≤0.5, 0.5<x≤4, or >4 denotes for synergistic, additive or antagonistic interaction, respectively. Initially, we assessed the adjuvant properties of PMBN against the panel of 21 antibiotics.
The assay was performed on 96-well plates as previously described. Briefly, the antibiotic at study was 2-fold serially diluted along the x-axis, while the adjuvant was 2-fold serially diluted along the y-axis to create a matrix in which each well consists of a combination of both at different concentrations. Overnight grown bacterial cultures were diluted in saline to 0.5 McFarland turbidity, followed by 1:50 dilution in MHB and inoculation on each well to a final concentration of approximately 5×10^5 colony forming units/mL. Wells containing only MHB with or without bacterial cells were used as positive or negative control, respectively. […] The fractional inhibitory concentration (FIC) of the antibiotic was calculated via dividing the MIC of antibiotic in the presence of adjuvant by the MIC of antibiotic alone. Similarly, the FIC of adjuvant was calculated via dividing the MIC of adjuvant in the presence of antibiotic by the MIC of adjuvant alone. The FIC index was obtained by the summation of both FIC values. The FIC index was then interpreted as synergistic, additive, or antagonistic for values of ≤0.5, 0.5<x<4, or ≥4, respectively.

P. aeruginosa PAO750 = conditions: P. aeruginosa PAO750, efflux-deficient strain that lacks five pumps and OpmH
Description: (§3) To our curiosity, we explored whether efflux can affect the activity of polymyxins. It is widely accepted that polymyxins disrupt Gram-negative bacterial membranes that result to intracellular component leakage and bacterial cell death. However, for this to occur requires the agent to reach the periplasmic space to interact and disrupt the inner membrane. Active efflux may potentially expel polymyxins out of the periplasm, effectively reducing its periplasmic and intracellular concentrations. To study the effect of efflux on polymyxins in Gram-negative pathogens, we used P. aeruginosa as they inherently overexpress efflux systems such as MexAB-OprM, MexCD-OprJ and MexXY-OprM. Moreover, antibiotic substrates for these efflux systems are mostly characterized. We evaluated and compared the activity of the dilipid polymyxins, colistin and PMBN against wild-type PAO1 and two efflux-deficient P. aeruginosa isogenic mutants (Table 5). The strain PAO200 lacks the MexAB-OprM efflux system while strain PAO750 lacks five clinically-relevant pumps (MexAB-OprM, MexCD-OprJ, MexEF-OprN, MexJK and MexXY) and outer membrane protein OpmH.
as §1, §2

P. aeruginosa PAO200 = system: P. aeruginosa PAO200
Description: as §3, §1, §2

[3] = healthy volunteers; single dose up to 800 mg or multiple dose up to 600 mg every 8 hours for 14 consecutive days; cited from earlier work

Compound: CC(C)C[C@@H]1NC(=O)[C@@H](Cc2ccccc2)NC(=O)[C@H](CCN)NC(=O)[C@@H](NC(=O)[C@H](CCN)NC(=O)[C@@H](N)[C@@H](C)O)CCNC(=O)[C@H]([C@@H](C)O)NC(=O)[C@H](CCN)NC(=O)[C@H](CCN)NC1=O [PMBN, polymyxin B nonapeptide, reference compound] (H-T[Dab][Dab][Dab][dF]L[Dab][Dab]T; lactam 3-C (inferred))
- MIC (P. aeruginosa PAO1 [1]): 128 µg/mL (≈ 133 µM)
- % Hemolysis at 512 μg/mL of polymyxin (pig erythrocytes): 1.1 ± 0.1%
- MIC of adjuvant alone (MIC1, MIC2, MIC3, MIC4, MIC5, MICPMBN) (P. aeruginosa PAO1 [2]; adjuvant alone, one value per checkerboard, in µg/mL): 128
- Interpretation (P. aeruginosa PAO1 [2]; combination with Aztreonam): Synergy (An FIC index of ≤0.5, 0.5<x≤4, or >4 denotes for synergistic, additive or antagonistic interaction, respectively)
- Interpretation (P. aeruginosa PAO1 [2]; combination with Ceftazidime): Synergy (An FIC index of ≤0.5, 0.5<x≤4, or >4 denotes for synergistic, additive or antagonistic interaction, respectively)
- Interpretation (P. aeruginosa PAO1 [2]; combination with Chloramphenicol): Synergy (An FIC index of ≤0.5, 0.5<x≤4, or >4 denotes for synergistic, additive or antagonistic interaction, respectively)
- Interpretation (P. aeruginosa PAO1 [2]; combination with Ciprofloxacin): Synergy (An FIC index of ≤0.5, 0.5<x≤4, or >4 denotes for synergistic, additive or antagonistic interaction, respectively)
- Interpretation (P. aeruginosa PAO1 [2]; combination with Clindamycin): Synergy (An FIC index of ≤0.5, 0.5<x≤4, or >4 denotes for synergistic, additive or antagonistic interaction, respectively)
- Interpretation (P. aeruginosa PAO1 [2]; combination with Doripenem): Synergy (An FIC index of ≤0.5, 0.5<x≤4, or >4 denotes for synergistic, additive or antagonistic interaction, respectively)
- Interpretation (P. aeruginosa PAO1 [2]; combination with Doxycycline): Synergy (An FIC index of ≤0.5, 0.5<x≤4, or >4 denotes for synergistic, additive or antagonistic interaction, respectively)
- Interpretation (P. aeruginosa PAO1 [2]; combination with Fosfomycin): Synergy (An FIC index of ≤0.5, 0.5<x≤4, or >4 denotes for synergistic, additive or antagonistic interaction, respectively)
- Interpretation (P. aeruginosa PAO1 [2]; combination with Gentamicin): Additive (An FIC index of ≤0.5, 0.5<x≤4, or >4 denotes for synergistic, additive or antagonistic interaction, respectively)
- Interpretation (P. aeruginosa PAO1 [2]; combination with Linezolid): Synergy (An FIC index of ≤0.5, 0.5<x≤4, or >4 denotes for synergistic, additive or antagonistic interaction, respectively)
- Interpretation (P. aeruginosa PAO1 [2]; combination with Meropenem): Synergy (An FIC index of ≤0.5, 0.5<x≤4, or >4 denotes for synergistic, additive or antagonistic interaction, respectively)
- Interpretation (P. aeruginosa PAO1 [2]; combination with Minocycline): Synergy (An FIC index of ≤0.5, 0.5<x≤4, or >4 denotes for synergistic, additive or antagonistic interaction, respectively)
- Interpretation (P. aeruginosa PAO1 [2]; combination with Moxifloxacin): Synergy (An FIC index of ≤0.5, 0.5<x≤4, or >4 denotes for synergistic, additive or antagonistic interaction, respectively)
- Interpretation (P. aeruginosa PAO1 [2]; combination with Novobiocin): Synergy (An FIC index of ≤0.5, 0.5<x≤4, or >4 denotes for synergistic, additive or antagonistic interaction, respectively)
- Interpretation (P. aeruginosa PAO1 [2]; combination with Piperacillin): Synergy (An FIC index of ≤0.5, 0.5<x≤4, or >4 denotes for synergistic, additive or antagonistic interaction, respectively)
- Interpretation (P. aeruginosa PAO1 [2]; combination with Pleuromutilin): Synergy (An FIC index of ≤0.5, 0.5<x≤4, or >4 denotes for synergistic, additive or antagonistic interaction, respectively)
- Interpretation (P. aeruginosa PAO1 [2]; combination with Rifampicin): Synergy (An FIC index of ≤0.5, 0.5<x≤4, or >4 denotes for synergistic, additive or antagonistic interaction, respectively)
- Interpretation (P. aeruginosa PAO1 [2]; combination with Streptomycin): Additive (An FIC index of ≤0.5, 0.5<x≤4, or >4 denotes for synergistic, additive or antagonistic interaction, respectively)
- Interpretation (P. aeruginosa PAO1 [2]; combination with Tobramycin): Additive (An FIC index of ≤0.5, 0.5<x≤4, or >4 denotes for synergistic, additive or antagonistic interaction, respectively)
- Interpretation (P. aeruginosa PAO1 [2]; combination with Trimethoprim): Synergy (An FIC index of ≤0.5, 0.5<x≤4, or >4 denotes for synergistic, additive or antagonistic interaction, respectively)
- Interpretation (P. aeruginosa PAO1 [2]; combination with Vancomycin): Synergy (An FIC index of ≤0.5, 0.5<x≤4, or >4 denotes for synergistic, additive or antagonistic interaction, respectively)
- MIC of adjuvant in combo (P. aeruginosa PAO1 [2]; in combination with Aztreonam): (4)
- MIC of adjuvant in combo (P. aeruginosa PAO1 [2]; in combination with Ceftazidime): (8)
- MIC of adjuvant in combo (P. aeruginosa PAO1 [2]; in combination with Chloramphenicol): (1)
- MIC of adjuvant in combo (P. aeruginosa PAO1 [2]; in combination with Ciprofloxacin): (32)
- MIC of adjuvant in combo (P. aeruginosa PAO1 [2]; in combination with Clindamycin): (0.5)
- MIC of adjuvant in combo (P. aeruginosa PAO1 [2]; in combination with Doripenem): (8)
- MIC of adjuvant in combo (P. aeruginosa PAO1 [2]; in combination with Doxycycline): (4)
- MIC of adjuvant in combo (P. aeruginosa PAO1 [2]; in combination with Fosfomycin): (32)
- MIC of adjuvant in combo (P. aeruginosa PAO1 [2]; in combination with Gentamicin): (64)
- MIC of adjuvant in combo (P. aeruginosa PAO1 [2]; in combination with Linezolid): (4)
- MIC of adjuvant in combo (P. aeruginosa PAO1 [2]; in combination with Meropenem): (16)
- MIC of adjuvant in combo (P. aeruginosa PAO1 [2]; in combination with Minocycline): (8)
- MIC of adjuvant in combo (P. aeruginosa PAO1 [2]; in combination with Moxifloxacin): (32)
- MIC of adjuvant in combo (P. aeruginosa PAO1 [2]; in combination with Novobiocin): (4)
- MIC of adjuvant in combo (P. aeruginosa PAO1 [2]; in combination with Piperacillin): (8)
- MIC of adjuvant in combo (P. aeruginosa PAO1 [2]; in combination with Pleuromutilin): (0.5)
- MIC of adjuvant in combo (P. aeruginosa PAO1 [2]; in combination with Rifampicin): (0.5)
- MIC of adjuvant in combo (P. aeruginosa PAO1 [2]; in combination with Streptomycin): (0.5)
- MIC of adjuvant in combo (P. aeruginosa PAO1 [2]; in combination with Tobramycin): (0.5)
- MIC of adjuvant in combo (P. aeruginosa PAO1 [2]; in combination with Trimethoprim): (4)
- MIC of adjuvant in combo (P. aeruginosa PAO1 [2]; in combination with Vancomycin): (1)
- adjuvant activity (potentiation of the panel of 21 antibiotics) (P. aeruginosa PAO1 [2]; result in words): potentiated all antibiotics tested except for those belonging to the aminoglycoside family
- MIC (P. aeruginosa PAO750): 4 µg/mL (≈ 4.15 µM)
- MIC (P. aeruginosa PAO200; P. aeruginosa PAO200, efflux-deficient strain that lacks the MexAB-OprM pump): 2 µg/mL (≈ 2.08 µM)
- fold difference in MIC against wild-type PAO1 and efflux-deficient PAO200 (P. aeruginosa PAO200; PAO1 versus PAO200 (lacks MexAB-OprM)): 64 fold

Compound: CC(=O)N[C@H](C(=O)N[C@H](CO)C(=O)N[C@H]1CCNC(=O)[C@H]([C@@H](C)O)NC(=O)[C@H](CCN)NC(=O)[C@H](CCN)NC(=O)[C@H](CC(C)C)NC(=O)[C@@H](Cc2ccccc2)NC(=O)[C@H](CCN)NC1=O)[C@@H](C)O [SPR741] (Ac-T[dS][Dab][Dab][dF]L[Dab][Dab]T; lactam 3-C)
- tolerability [3]: well-tolerated
